The test system of this assay is anti-Factor Xa activity of Lovenox®. Description: In vivo neutralization of the LMWH Lovenox in rats (anti-Factor Xa assay of plasma). The protocol: Experiments were performed to test the ability of heparin-binding peptides of the invention to neutralize low molecular weight heparins which are used clinically, such as Lovenox®. To this end, rats were cannulated in the jugular and femoral veins. Lovenox® was injected through the jugular vein, and three minutes later the peptide was injected via the jugular vein. The peptides tested included (ARKKAAKA)4 (SEQ ID NO:31), C(ARKKAAKA)4C (SEQ ID NO:34), (ARKKAAKA)3ARKKCAKA (SEQ ID NO:33), and (ARKKAAKA)3VLVLVLVL (SEQ ID NO:5). Blood was collected from the femoral vein. 0.1 ml was collected at each time point. Plasma was prepared from each tube, and the anti-Factor Xa assay was performed.
Results. The dose response of each peptide from 2 mg/300 gm to 0.5 mg/300 gm was tested and a representative dose (1.0 mg) is shown in FIG. 4. […] The absorbance is inversely proportional to the heparin concentration. There is no heparin present when A405=0.7, and about 1 U/ml when A405=0.4. The events at the arrows are indicated in the box insert.

Here are results for 1 sequence from patent publication US7259140B2, “Heparin-binding peptides and uses thereof” (Thomas Jefferson University, priority 2003, dated 2007).

Ends that are not written are not given here.

Regarding “ARKKAAKAARKKAAKAARKKAAKAVLVLVLVL [(ARKKAAKA)3VLVLVLVL]”, the “rank in in vivo neutralization of Lovenox” value is recorded as “most effective at the lowest dose”.
